“And” between values parts separate entries of the source, which are not always exact repeats. Identical values can stand only once. Inconclusive results and toxic doses are left out. No stated cut-off is given here; in the data, active means T/C of 150% or more; inactive means T/C below 125%.
Tested on: L1210 leukemia ip in BDF1 mice, survival T/C
Assay: NCI In Vivo Anticancer Drug Screen. Data for tumor model L1210 Leukemia (intraperitoneal) in B6D2F1 (BDF1) mice
Details: endpoint: mean survival time, higher = longer survival
Method in brief: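 Transplanted-tumor mice were given test agent; controls received vehicle only. Survival readings from the two groups were divided (treated over control).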

[1] = dose: 50.0 mg/kg/injection, schedule: Q01DX009 (ip), vehicle: saline
[2] = dose: 100.0 mg/kg/injection, schedule: Q01DX009 (ip), vehicle: saline
[3] = dose: 100.0 mg/kg/injection, schedule: Q04DX002 (ip), vehicle: saline with Tween-80
[4] = dose: 200.0 mg/kg/injection, schedule: Q04DX002 (ip), vehicle: saline with Tween-80
[5] = dose: 100.0 mg/kg/injection, schedule: Q04DX003 (ip), vehicle: Klucel (hydroxypropylcellulose) (HPC)
[6] = dose: 200.0 mg/kg/injection, schedule: Q04DX003 (ip), vehicle: Klucel (hydroxypropylcellulose) (HPC)
[7] = dose: 400.0 mg/kg/injection, schedule: Q04DX003 (ip), vehicle: Klucel (hydroxypropylcellulose) (HPC)
[8] = dose: 200.0 mg/kg/injection, schedule: Q01DX009 (ip), vehicle: saline
[9] = dose: 100.0 mg/kg/injection, schedule: Q01DX001 (ip), vehicle: saline
[10] = dose: 200.0 mg/kg/injection, schedule: Q01DX001 (ip), vehicle: saline
[11] = dose: 400.0 mg/kg/injection, schedule: Q01DX001 (ip), vehicle: saline

Measured: T/C

c1cc2c(c3c1CCCC3)CCCC2
inactive: dose: 50.0 mg/kg/injection, schedule: Q01DX001 (ip), vehicle: carboxymethylcellulose (CMC) 92 % of control | [1] 101 % of control | dose: 100.0 mg/kg/injection, schedule: Q01DX001 (ip), vehicle: carboxymethylcellulose (CMC) 97 % of control | [2] 94 % of control | dose: 100.0 mg/kg/injection, schedule: Q04DX003 (ip), vehicle: saline 91 % of control | dose: 200.0 mg/kg/injection, schedule: Q01DX001 (ip), vehicle: carboxymethylcellulose (CMC) 91 % of control | dose: 200.0 mg/kg/injection, schedule: Q04DX003 (ip), vehicle: saline 101 % of control | dose: 400.0 mg/kg/injection, schedule: Q01DX001 (ip), vehicle: carboxymethylcellulose (CMC) 94 % of control

CN1CN(c2ccccc2)C2(CCNCC2)C1=O
inactive: dose: 75.0 mg/kg/injection, schedule: Q01DX001 (ip), vehicle: saline 102 % of control | dose: 150.0 mg/kg/injection, schedule: Q01DX001 (ip), vehicle: saline 96 % of control

CC(C)CCOC(=O)N(C)c1ccccc1
inactive: dose: 75.0 mg/kg/injection, schedule: Q04DX002 (ip), vehicle: Klucel (hydroxypropylcellulose) (HPC) 101 % of control | dose: 150.0 mg/kg/injection, schedule: Q04DX002 (ip), vehicle: Klucel (hydroxypropylcellulose) (HPC) 105 % of control | dose: 300.0 mg/kg/injection, schedule: Q04DX002 (ip), vehicle: Klucel (hydroxypropylcellulose) (HPC) 105 % of control

C=C(Br)COCC
inactive: dose: 25.0 mg/kg/injection, schedule: Q01DX009 (ip), vehicle: acetone 97 % of control

CC(=O)N(c1ccc(NC(=O)c2ccc(N3C(=O)c4ccccc4C3=O)cc2[N+](=O)[O-])cc1)c1cc[n+](C)cc1
inactive: dose: 100.0 mg/kg/injection, schedule: Q01DX001 (ip), vehicle: saline with Tween-80 93 % of control and 90 % of control | [3] 101 % of control and 115 % of control | dose: 200.0 mg/kg/injection, schedule: Q01DX001 (ip), vehicle: saline with Tween-80 93 % of control and 108 % of control | [4] 101 % of control and 113 % of control | dose: 400.0 mg/kg/injection, schedule: Q01DX001 (ip), vehicle: saline with Tween-80 107 % of control and 90 % of control | dose: 400.0 mg/kg/injection, schedule: Q04DX002 (ip), vehicle: saline with Tween-80 96 % of control and 105 % of control

O=C(O)c1ccc(-c2ccccc2)cc1
inactive: dose: 50.0 mg/kg/injection, schedule: Q01DX Z (ip), vehicle: carboxymethylcellulose (CMC) 92 % of control | dose: 100.0 mg/kg/injection, schedule: Q01DX009 (ip), vehicle: Klucel (hydroxypropylcellulose) (HPC) 95 % of control | dose: 100.0 mg/kg/injection, schedule: Q01DX Z (ip), vehicle: carboxymethylcellulose (CMC) 93 % of control | [5] 104 % of control | dose: 200.0 mg/kg/injection, schedule: Q01DX009 (ip), vehicle: Klucel (hydroxypropylcellulose) (HPC) 98 % of control | dose: 200.0 mg/kg/injection, schedule: Q01DX Z (ip), vehicle: carboxymethylcellulose (CMC) 97 % of control | [6] 93 % of control | [7] 104 % of control

COC(=O)C1=C(c2ccncc2)c2cccc3cccc1c23
inactive: dose: 100.0 mg/kg/injection, schedule: Q04DX003 (ip), vehicle: alcohol 94 % of control | dose: 200.0 mg/kg/injection, schedule: Q04DX003 (ip), vehicle: alcohol 102 % of control

CC(=O)Nc1cc(C)no1
inactive: [2] 103 % of control | [5] 102 % of control | [8] 100 % of control | [6] 96 % of control | dose: 400.0 mg/kg/injection, schedule: Q01DX009 (ip), vehicle: saline 101 % of control | [7] 92 % of control

CN(CCOS(=O)(=O)O)CCOS(=O)(=O)O
inactive: dose: 37.5 mg/kg/injection, schedule: Q01DX009 (ip), vehicle: saline 98 % of control | dose: 75.0 mg/kg/injection, schedule: Q01DX009 (ip), vehicle: saline 98 % of control | dose: 75.0 mg/kg/injection, schedule: Q04DX003 (ip), vehicle: saline 102 % of control | dose: 150.0 mg/kg/injection, schedule: Q01DX009 (ip), vehicle: saline 95 % of control | dose: 150.0 mg/kg/injection, schedule: Q04DX003 (ip), vehicle: saline 100 % of control | dose: 300.0 mg/kg/injection, schedule: Q04DX003 (ip), vehicle: saline 96 % of control

CC(=O)c1cccc(NC(=O)Nc2ccc(Nc3ccccc3)cc2)c1
inactive: dose: 100.0 mg/kg/injection, schedule: Q01DX009 (ip), vehicle: other 103 % of control | dose: 200.0 mg/kg/injection, schedule: Q01DX009 (ip), vehicle: other 101 % of control | dose: 400.0 mg/kg/injection, schedule: Q01DX009 (ip), vehicle: other 93 % of control

O=C1C=CC(=O)C1
inactive: dose: 2.25 mg/kg/injection, schedule: Q01DX009 (ip), vehicle: saline 111 % of control | dose: 2.25 mg/kg/injection, schedule: Q04DX003 (ip), vehicle: saline 97 % of control | dose: 4.5 mg/kg/injection, schedule: Q01DX009 (ip), vehicle: saline 106 % of control | dose: 4.5 mg/kg/injection, schedule: Q04DX003 (ip), vehicle: saline 98 % of control | dose: 9.0 mg/kg/injection, schedule: Q04DX003 (ip), vehicle: saline 96 % of control

O=C(Nc1ccc(Cl)c(Cl)c1)O/N=C\c1c(Cl)ccc([N+](=O)[O-])c1Cl
inactive: [9] 102 % of control | [10] 107 % of control | [11] 102 % of control

CC(C)c1oc(=O)cc2c1[C@@H](O)[C@H]1OC(=O)[C@@]3(C)[C@@H](O)[C@H]4O[C@H]4[C@@]2(C)[C@@H]13
inactive: dose: 5.0 mg/kg/injection, schedule: Q01DX001 (ip), vehicle: steriod suspending solution 105 % of control | dose: 10.0 mg/kg/injection, schedule: Q01DX001 (ip), vehicle: steriod suspending solution 98 % of control | dose: 20.0 mg/kg/injection, schedule: Q01DX001 (ip), vehicle: steriod suspending solution 110 % of control | dose: 40.0 mg/kg/injection, schedule: Q01DX001 (ip), vehicle: steriod suspending solution 104 % of control

CCCCNC(=O)NC(=O)C(C)(C)Oc1ccc(Cl)cc1
inactive: [1] 103 % of control | [2] 103 % of control | [8] 95 % of control

CC1(O)CCC2CC1C2(C)CO (stereo unspecified)
inactive: dose: 50.0 mg/kg/injection, schedule: Q04DX003 (ip), vehicle: Klucel (hydroxypropylcellulose) (HPC) 108 % of control | [5] 101 % of control | [6] 106 % of control | [7] 111 % of control

CN(C(=O)CCC(=O)O)c1cc([N+](=O)[O-])ccc1OCc1ccccc1
inactive: dose: 50.0 mg/kg/injection, schedule: Q01DX001 (ip), vehicle: saline 108 % of control | [9] 100 % of control | [10] 105 % of control | [11] 109 % of control

N/N=C(/CC1C(=O)Nc2ccccc21)c1ccccc1 (stereo unspecified)
inactive: dose: 100.0 mg/kg/injection, schedule: Q04DX002 (ip), vehicle: Klucel (hydroxypropylcellulose) (HPC) 94 % of control | dose: 200.0 mg/kg/injection, schedule: Q04DX002 (ip), vehicle: Klucel (hydroxypropylcellulose) (HPC) 108 % of control | dose: 400.0 mg/kg/injection, schedule: Q04DX002 (ip), vehicle: Klucel (hydroxypropylcellulose) (HPC) 91 % of control

O=C(O)/C=C/Sc1ccc(Cl)cc1
inactive: dose: 50.0 mg/kg/injection, schedule: Q01DX009 (ip), vehicle: saline with Tween-80 94 % of control | dose: 100.0 mg/kg/injection, schedule: Q01DX009 (ip), vehicle: saline with Tween-80 94 % of control | [3] 95 % of control | dose: 200.0 mg/kg/injection, schedule: Q01DX009 (ip), vehicle: saline with Tween-80 94 % of control | [4] 92 % of control

CCCCCCCCCCCC(=O)NC(=S)Nc1ccccc1F
inactive: [5] 95 % of control | [6] 87 % of control

CC12CCC(O)CC1=CCC1C2CCC2(C)C1CC1=CC(C#N)C(=O)NC12O (stereo unspecified)
inactive: dose: 100.0 mg/kg/injection, schedule: Q04DX003 (sc), vehicle: Klucel (hydroxypropylcellulose) (HPC) 100 % of control | dose: 200.0 mg/kg/injection, schedule: Q04DX003 (sc), vehicle: Klucel (hydroxypropylcellulose) (HPC) 103 % of control | dose: 400.0 mg/kg/injection, schedule: Q04DX003 (sc), vehicle: Klucel (hydroxypropylcellulose) (HPC) 99 % of control

— PubChem BioAssay AID248 (DTP/NCI, 2004)
